Here are results for 23 molecules from patent US20240043439A1, “COMPOUNDS AS C5AR INHIBITORS” (Kira Pharmaceuticals (Suzhou) Ltd., priority 2020, published 2024).

One assay concerns the target C5aR (Homo sapiens (Human), UniProt P21730). The assay is described as follows: Calcium mobilization (U937/C5aR or HEK293/C5aR cells, FLIPR). The class given is cell-based. To be noted: agonist human C5a at EC80, FLIPR. The essentials:
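U937 or HEK293 cells expressing human C5aR, plated overnight, then preincubated 60 min with compound. After Fluo-4 Direct dye loading (50 min at 37 °C, 10 min at room temperature), intracellular calcium rise on FLIPR was triggered by human C5a agonist at EC80.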

Assay [1] concerns the target human C5a receptor (C5aR) (Homo sapiens (Human), UniProt P21730). The assay is described as follows: Inhibition of C5a-C5aR binding (biotinylated human C5a, U937/C5aR cells, FACS). The essentials:
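U937 cells stably expressing human C5aR, 3×10^6 cells/ml in PBS+0.1% BSA, were co-incubated with compound and biotinylated human C5a (30 nM, working solution) on ice for 120 min. Bound ligand was stained with FITC-streptavidin for 30 min on ice and read by flow cytometry.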

Chain of human C5a receptor (C5aR) (P21730 whole entry): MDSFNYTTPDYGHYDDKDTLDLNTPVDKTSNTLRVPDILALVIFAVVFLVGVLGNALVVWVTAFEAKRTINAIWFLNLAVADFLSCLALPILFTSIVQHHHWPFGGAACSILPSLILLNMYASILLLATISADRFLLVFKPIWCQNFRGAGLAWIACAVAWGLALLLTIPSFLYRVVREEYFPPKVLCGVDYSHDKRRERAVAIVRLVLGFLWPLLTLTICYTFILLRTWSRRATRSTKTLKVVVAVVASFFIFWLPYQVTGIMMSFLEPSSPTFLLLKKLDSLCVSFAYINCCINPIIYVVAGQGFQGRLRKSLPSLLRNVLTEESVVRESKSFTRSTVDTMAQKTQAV
Chain of C5aR (P21730 whole entry): as above

For the molecule `Cc1ccc(NC(=O)[C@H]2CCCN(S(=O)(=O)c3cccc(Cl)c3C)[C@H]2c2ccc(NC3CCCC3)cc2)cc1C(F)(F)F` [Compound 16, (2R,3S)-1-((3-chloro-2-methylphenyl)sulfonyl)-2-(4-(cyclopentylamino)phenyl)-N-(4-methyl-3-(trifluoromethyl)phenyl)piperidine-3-carboxamide], the figures for the IC50 (at C5aR; in assay [1]) were more than 10000 nM and 2000 to 5000 nM, respectively.

`Cc1ccc(NC(=O)[C@H]2CCCN(S(=O)(=O)c3cc(F)ccc3C)[C@H]2c2ccc(NC3CCCC3)cc2)cc1C(F)(F)F` [Compound 17, (2R,3S)-2-(4-(cyclopentylamino)phenyl)-1-((5-fluoro-2-methylphenyl)sulfonyl)-N-(4-methyl-3-(trifluoromethyl)phenyl)piperidine-3-carboxamide]: the IC50 at C5aR lay within 2000 to 10000 nM; in assay [1], 500 to 2000 nM.

With `Cc1ccc(NC(=O)[C@H]2CCCN(S(=O)(=O)c3cccc(F)c3C)[C@H]2c2ccc(NC3CCCC3)cc2)cc1C(F)(F)F` [Compound 18, (2R,3S)-1-((3-fluoro-2-methylphenyl)sulfonyl)-2-(4-(cyclopentylamino)phenyl)-N-(4-methyl-3-(trifluoromethyl)phenyl)piperidine-3-carboxamide], the IC50 on C5aR was more than 10000 nM; in assay [1], 2000 to 5000 nM.

Take `Cc1ccc(NC(=O)[C@H]2CCCN(S(=O)(=O)c3c(F)cccc3F)[C@H]2c2ccc(NC3CCCC3)cc2)cc1C(F)(F)F` [Compound 19, (2R,3S)-2-(4-(cyclopentylamino)phenyl)-1-((2,6-difluorophenyl)sulfonyl)-N-(4-methyl-3-(trifluoromethyl)phenyl)piperidine-3-carboxamide]: the IC50 at C5aR is 2000 to 10000 nM; in assay [1], 2000 to 5000 nM.

Consider `Cc1ccc(NC(=O)[C@H]2CCCN(S(=O)(=O)c3c(Cl)cccc3Cl)[C@H]2c2ccc(NC3CCCC3)cc2)cc1C(F)(F)F` [Compound 20, (2R,3S)-2-(4-(cyclopentylamino)phenyl)-1-((2,6-dichlorophenyl)sulfonyl)-N-(4-methyl-3-(trifluoromethyl)phenyl)piperidine-3-carboxamide], for which the IC50 on C5aR is more than 10000 nM; in assay [1], 2000 to 5000 nM.

On to `Cc1ccc(NC(=O)[C@H]2CCCN(S(=O)(=O)c3ccccc3C)[C@H]2c2ccc(NC3CCCC3)cc2)cc1C(F)(F)F` [Compound 22, (2R,3S)-2-(4-(cyclopentylamino)phenyl)-N-(4-methyl-3-(trifluoromethyl)phenyl)-1-(o-tolylsulfonyl)piperidine-3-carboxamide], for which the IC50 at C5aR was more than 10000 nM; in assay [1], 500 to 2000 nM.

As to `COc1ccccc1S(=O)(=O)N1CCC[C@H](C(=O)Nc2ccc(C)c(C(F)(F)F)c2)[C@@H]1c1ccc(NC2CCCC2)cc1` [Compound 23, (2R,3S)-2-(4-(cyclopentylamino)phenyl)-1-((2-methoxyphenyl)sulfonyl)-N-(4-methyl-3-(trifluoromethyl)phenyl)piperidine-3-carboxamide], the concentration for half-maximal inhibition (IC50) lay within 2000 to 10000 nM at C5aR and 2000 to 5000 nM in assay [1].

In the case of `Cc1ccc(NC(=O)[C@H]2CCCN(S(=O)(=O)c3ccccc3OC(F)(F)F)[C@H]2c2ccc(NC3CCCC3)cc2)cc1C(F)(F)F` [Compound 24, (2R,3S)-2-(4-(cyclopentylamino)phenyl)-N-(4-methyl-3-(trifluoromethyl)phenyl)-1-((2-(trifluoromethoxy)phenyl)sulfonyl)piperidine-3-carboxamide], the half-inhibitory concentration (IC50) on C5aR was more than 10000 nM; in assay [1] it was 2000 to 5000 nM.

For the molecule `Cc1ccc(NC(=O)[C@H]2CCCN(S(=O)(=O)c3ccccc3F)[C@H]2c2ccc(NC3CCCC3)cc2)cc1C(F)(F)F` [Compound 25, (2R,3S)-2-(4-(cyclopentylamino)phenyl)-1-((2-fluorophenyl)sulfonyl)-N-(4-methyl-3-(trifluoromethyl)phenyl)piperidine-3-carboxamide], the concentration for half-maximal inhibition (IC50) at C5aR is more than 10000 nM; in assay [1], 500 to 2000 nM.

As to `Cc1ccc(NC(=O)[C@H]2CCCN(S(=O)(=O)c3ccccc3Cl)[C@H]2c2ccc(NC3CCCC3)cc2)cc1C(F)(F)F` [Compound 26, (2R,3S)-1-((2-chlorophenyl)sulfonyl)-2-(4-(cyclopentylamino)phenyl)-N-(4-methyl-3-(trifluoromethyl)phenyl)piperidine-3-carboxamide], the IC50 at C5aR was more than 10000 nM; in assay [1] it was 2000 to 5000 nM.

On to `Cc1ccc(NC(=O)[C@H]2CCCN(S(=O)(=O)c3ccccc3Br)[C@H]2c2ccc(NC3CCCC3)cc2)cc1C(F)(F)F` [Compound 27, (2R,3S)-1-((2-bromophenyl)sulfonyl)-2-(4-(cyclopentylamino)phenyl)-N-(4-methyl-3-(trifluoromethyl)phenyl)piperidine-3-carboxamide], for which the IC50 was in the range of 2000 to 10000 nM at C5aR and 2000 to 5000 nM in assay [1].

`Cc1ccc(NC(=O)[C@H]2CCCN(S(=O)(=O)c3ccccc3C(F)(F)F)[C@H]2c2ccc(NC3CCCC3)cc2)cc1C(F)(F)F` [Compound 28, (2R,3S)-2-(4-(cyclopentylamino)phenyl)-N-(4-methyl-3-(trifluoromethyl)phenyl)-1-((2-(trifluoromethyl)phenyl)sulfonyl)piperidine-3-carboxamide]: the IC50 fell in the range of 2000 to 10000 nM on C5aR and 2000 to 5000 nM in assay [1].

In the case of `Cc1ccc(NC(=O)[C@H]2CCCN(S(=O)(=O)c3ccccc3S(C)(=O)=O)[C@H]2c2ccc(NC3CCCC3)cc2)cc1C(F)(F)F` [Compound 29, (2R,3S)-2-(4-(cyclopentylamino)phenyl)-N-(4-methyl-3-(trifluoromethyl)phenyl)-1-((2-(methylsulfonyl)phenyl)sulfonyl)piperidine-3-carboxamide], the IC50 at C5aR is 2000 to 10000 nM; in assay [1] it was 2000 to 5000 nM.

For `Cc1ccc(NC(=O)[C@H]2CCCN(S(=O)(=O)c3ccccc3C#N)[C@H]2c2ccc(NC3CCCC3)cc2)cc1C(F)(F)F` [Compound 30, (2R,3S)-1-((2-cyanophenyl)sulfonyl)-2-(4-(cyclopentylamino)phenyl)-N-(4-methyl-3-(trifluoromethyl)phenyl)piperidine-3-carboxamide], the IC50 on C5aR fell in the range of 2000 to 10000 nM; in assay [1] it was 2000 to 5000 nM.

As for `Cc1ccc(NC(=O)[C@H]2CCCN(S(=O)(=O)c3ccc4ccccc4c3)[C@H]2c2ccc(NC3CCCC3)cc2)cc1C(F)(F)F` [Compound 32, (2R,3S)-2-(4-(cyclopentylamino)phenyl)-N-(4-methyl-3-(trifluoromethyl)phenyl)-1-(naphthalen-2-ylsulfonyl)piperidine-3-carboxamide], the IC50 is 2000 to 10000 nM at C5aR and 2000 to 5000 nM in assay [1].

Consider `Cc1ccc(NC(=O)[C@H]2CCCN(S(=O)(=O)c3cccc4ccccc34)[C@H]2c2ccc(NC3CCCC3)cc2)cc1C(F)(F)F` [Compound 33, (2R,3S)-2-(4-(cyclopentylamino)phenyl)-N-(4-methyl-3-(trifluoromethyl)phenyl)-1-(naphthalen-1-ylsulfonyl)piperidine-3-carboxamide], for which the IC50 on C5aR was 2000 to 10000 nM; in assay [1] it was 2000 to 5000 nM.

Take `Cc1ccc(NC(=O)[C@H]2CCCN(S(=O)(=O)c3ccccc3)[C@H]2c2ccc(NC3CCCC3)cc2)cc1C(F)(F)F` [Compound 34, (2R,3S)-2-(4-(cyclopentylamino)phenyl)-N-(4-methyl-3-(trifluoromethyl)phenyl)-1-(phenylsulfonyl)piperidine-3-carboxamide]: the IC50 was more than 10000 nM on C5aR and 2000 to 5000 nM in assay [1].

`Cc1ccc(NC(=O)[C@H]2CCCN(S(=O)(=O)c3cccnc3)[C@H]2c2ccc(NC3CCCC3)cc2)cc1C(F)(F)F` [Compound 35, (2R,3S)-2-(4-(cyclopentylamino)phenyl)-N-(4-methyl-3-(trifluoromethyl)phenyl)-1-(pyridin-3-ylsulfonyl)piperidine-3-carboxamide]: the IC50 at C5aR was more than 10000 nM; in assay [1], 2000 to 5000 nM.

In the case of `Cc1ccc(NC(=O)[C@H]2CCCN(S(=O)(=O)c3cccnc3Cl)[C@H]2c2ccc(NC3CCCC3)cc2)cc1C(F)(F)F` [Compound 36, (2R,3S)-1-((2-chloropyridin-3-yl)sulfonyl)-2-(4-(cyclopentylamino)phenyl)-N-(4-methyl-3-(trifluoromethyl)phenyl)piperidine-3-carboxamide], the concentration for half-maximal inhibition (IC50) at C5aR was in the range of 2000 to 10000 nM; in assay [1] it was 500 to 2000 nM.

As for `Cc1ccc(NC(=O)[C@H]2CCCN(S(=O)(=O)c3c(C)nn(C)c3C)[C@H]2c2ccc(NC3CCCC3)cc2)cc1C(F)(F)F` [Compound 38, (2R,3S)-2-(4-(cyclopentylamino)phenyl)-N-(4-methyl-3-(trifluoromethyl)phenyl)-1-((1,3,5-trimethyl-1H-pyrazol-4-yl)sulfonyl)piperidine-3-carboxamide], the concentration for half-maximal inhibition (IC50) was more than 10000 nM at C5aR and 2000 to 5000 nM in assay [1].

For the molecule `Cc1ccc(NC(=O)[C@H]2CCCN(S(=O)(=O)Cc3ccccc3)[C@H]2c2ccc(NC3CCCC3)cc2)cc1C(F)(F)F` [Compound 40, (2R,3S)-1-(benzylsulfonyl)-2-(4-(cyclopentylamino)phenyl)-N-(4-methyl-3-(trifluoromethyl)phenyl)piperidine-3-carboxamide], the IC50 on C5aR is 2000 to 10000 nM; in assay [1], less than 50 nM.

As for `Cc1cccc(F)c1C(=O)N1[C@@H]2CCC[C@@H]2C[C@H](C(=O)Nc2ccc3cnn(C)c3c2)[C@@H]1c1ccc(NC2CCCC2)cc1` [Compound 50, (2R,3S,4aR,7aR)-2-(4-(cyclopentylamino)phenyl)-1-(2-fluoro-6-methylbenzoyl)-N-(1-methyl-1H-indazol-6-yl)octahydro-1H-cyclopenta[b]pyridine-3-carboxamide], the values for the IC50 (at C5aR; in assay [1]) were 500 to 2000 nM and less than 50 nM, respectively.

For the molecule `Cc1cccc(F)c1C(=O)N1[C@@H]2CCC[C@@H]2C[C@H](C(=O)NC2CCOCC2)[C@@H]1c1ccc(NC2CCCC2)cc1` [Compound 52, (2R,3S,4aR,7aR)-2-(4-(cyclopentylamino)phenyl)-1-(2-fluoro-6-methylbenzoyl)-N-(tetrahydro-2H-pyran-4-yl)octahydro-1H-cyclopenta[b]pyridine-3-carboxamide], the figures for the IC50 (on C5aR; in assay [1]) were 2000 to 10000 nM and 2000 to 5000 nM, respectively.
